Literature values, collected in PMC4914392 (Bioorganic & medicinal chemistry, 2016).

Conditions: ref [17]

## Nc1nccc2c1nnn2[C@@H]1O[C@H](CO)[C@@H](O)[C@H]1O [Compound 4, 8-aza-3-deazaadenosine]
  Fluorescence emission λmax (H2O): 430 nm
  Stokes shift (H2O): 140 nm
